Source: patent US6002002A, “Anti-ischaemic hydroxylamine derivatives and pharmaceutical compositions” (Biorex Research & Development Co., priority 1995, dated 1999)

How the values were obtained:
[1] = system: isolated rabbit thoracal aorta; test: in vitro vasorelaxation on isolated rabbit thoracal aorta; assay type: cell-based; conditions: Oryctolagus cuniculus
Procedure: The vasorelaxant effect of the compounds of the invention was tested in vitro on isolated rabbit thoracal aorta according to Am. J. Physiol. 257:, 1327-1333 (1989).

anaesthetized rats = test: Reperfusion-induced arrhytmia (ventricular tachycardia and fibrillation) after LAD coronary occlusion in anaesthetized rats; survival; assay type: in vivo; conditions: rat, 1 mg/kg i.v. 5 minutes before pressing LAD coronary artery; 5 min ischaemia, 10 min reperfusion
Procedure: The reperfusion-induced arrhytmia (ventricular tachycardia, KT and ventricuiar fibrillation, KF) was tested on anaesthetized rats. Myocardial ischaemia was induced by pressing the coronary artery for 5 minutes followed by 10 minutes reperfusion of the heart. The ECG was permanently monitored and the change of mean period of KT and KF by the effect of active materials was measured in the first 3 minutes of reperfusion. Survival was also monitored. The compounds were administered i.v. 5 minutes before pressing the LAD coronary artery in a dosis of 1 mg/kg.
Experimental results obtained by administering some representative compounds of the invention are listed below: […]

platelet aggregation = test: Inhibition of ADP-induced platelet aggregation in platelet-rich preparates from human venal blood; assay type: cell-based; conditions: concentration inhibiting the aggregation in 50%, read-out: antiaggregation EC50
Procedure: To the samples sodium citrate was added and 10 minutes later centrifuged with 1000 rpm.

Row | SMILES | EC50 [1] | Survival % (anaesthetized rats) | EC50 (platelet aggregation)
1 | CC(C)COCC(CN(Cc1ccccc1)c1ccccc1)N1CCCC1 (stereo not shown) [Bepridyl, reference compound] | 83 µM | – | –
2 | CCCNC(=O)NOCC(O)CN1CCCCC1 (stereo not shown) [Example 4, N-n-propyl-N'-(2-hydroxy-3-piperidino-propoxy)-urea] | – | 67% | –
3 | O=C(NOCC(O)CN1CCCCC1)NC1CCCCC1 (stereo not shown) [Example 5, N-cyclohexyl-N'-(2-hydroxy-3-piperidino-propoxy)-urea] | – | 67% | –
4 | CCCCCCNC(=O)NOCC(O)CN1CCCCC1 (stereo not shown) [Example 6, N-n-hexyl-N'-(2-hydroxy-3-piperidino-propoxy)-urea] | 190 µM | 100% | 1500 µM
5 | O=C(NOCC(O)CN1CCCCC1)Nc1cccc(Cl)c1 (stereo not shown) [Example 7, N-(3-chlorophenyl)-N'-(2-hydroxy-3-piperidino-propoxy)-urea] | 100 µM | 86% | 900 µM
6 | CC(C)(C)N(CC(O)CONC(=O)NC1CCCCC1)C(=O)NC1CCCCC1 (stereo not shown) [Example 15, N-cyclohexyl-N'-{2-hydroxy-3-[N-(cyclohexyl-carbamoyl)-N-tert-butylamino]-propoxy}-urea] | – | 60% | –
7 | CCCCCCNC(=O)NOCCCN1CCCCC1 [Example 16, N-n-hexyl-N'-(3-piperidino-propoxy)-urea] | 450 µM | 83% | 710 µM
8 | O=C(NOCC(O)CN1CCCCC1)Nc1cccc([N+](=O)[O-])c1 (stereo not shown) [Example 19, N-(3-nitrophenyl)-N'-(2-hydroxy-3-piperidino-propoxy)-urea] | 38 µM | – | 340 µM
9 | CCCCCCCNC(=O)NOCC(O)CN1CCCCC1 (stereo not shown) [Example 23, N-heptyl-N'-(2-hydroxy-3-piperidino-propoxy)-urea] | 190 µM | 80% | 430 µM
10 | CCOC(=O)[N-]c1c[n+](N2CCOCC2)no1 [Molsidomin, reference compound] | – | – | 1500 µM
